According to patent publication US5968526A, “T cell epitopes of the major allergens from Dermatophagoides (house dust mite)” (Immulogic Pharamaceutical Corporation, priority 1995, dated 1999):
Values belong to the substance of their own block, whether it stands above or below them.

Assays:
[1] = test system: T cell lines primed in vitro to Der p II; test: secondary proliferation of Der p II-primed T cell lines (Examples VIII, X, XI); type: cell-based, human; settings: for T cell reactivity: overlapping Der p II peptides, FIG. 9; for T cell reactivity / T cell response to Der f II peptides: 26 positive experiments; for T cell response: patient 348, native Der p II primed, data not shown; for T cell response to Der f II peptides: Der p II primed, FIG. 12
Summary of the method: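 PBMC from house dust mite-allergic patients primed in vitro with native or recombinant Der p II at 20 μg/ml (or recombinant at 3 μg/ml), with x-irradiated (3500 Rads) autologous PBMC as antigen-presenting cells. Lines then challenged with Der p II-derived peptides; proliferation expressed as S.I., ranked sum scoring top three responses 3, 2, 1.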

[2] = test system: T cell lines primed in vitro to Der f II; test: secondary proliferation of Der f II-primed T cell lines (Examples IX, X, XI); type: cell-based, human; settings: for T cell response to Der p II peptides: Der f II primed, FIG. 11; for T cell response to Der p II peptides / T cell reactivity: 10 positive experiments; for T cell reactivity: overlapping Der f II peptides, FIG. 10; for T cell response: patient 384, recombinant Der f II primed, data not shown
Method: Experiments similar to those of Example V were performed to determine the T cell-reactive areas of the Der f II protein. For example, PBMC from house dust mite-allergic patient 384 were stimulated in vitro with purified recombinant Der f II and the T cell line was then challenged in the presence of x-irradiated (25,000 Rads) autologous Epstein-Barr virus transformed B cells as antigen presenting cells with various overlapping […]. The results of this proliferation assay indicate that T cells from this particular patient respond well to peptides DF II-1, DF II-2, DF II-3.1, DF II-4.5, DF II-15, DF II-16, and DF I-19.1 (data not shown).
The above procedure was followed with 10 patients, except in individual cases, T cell lines were primed by stimulating the patient PBMC with 20 μg/ml or 3 μg/ml purified native Der f II, and were assayed in the presence of x-irradiated (3500 Rads) autologous PBMC as antigen-presentingcells.
A study similar to that described in Example VII was carried out to determine the T cell cross-reactivity of the Der p II and Der f II proteins. T cells primed with the Der f II protein were challenged with various Der f II peptides and a set of substantially matching Der p II peptides. […]

human IgE = test: direct binding ELISA of IgE to mite allergen proteins and peptides; settings: plasma of 19 mite-allergic patients and pool of 18; Example XV
Method: The coating antigens were removed and the wells are blocked with 0.5% gelatin in PBS, 300 μl/well for 2 hours at room temperature. Pooled human plasma (a mix of plasma samples from 20 patients that were skin test positive for commerical mite extract) was serially diluted with PBS-Tween 20 (PBS with 0.05% nonionic detergent Tween-20 Sigma, St. Louis, Mo.) and 100 μl/well a.backslash.was added and incubated overnight at 4° C. (plasma dilutions were tested in duplicate). The second antibody (biotinylated goat anti-Human IgE, 1:1000, Kirkegaard & Perry Laboratories Inc, Gaithersburg, Md.), was added at 100 μl/well for one hour at room temperature. This solution was removed and streptavidin-HRPO, 1:10000, (Southern Biotechnology Associates, Inc., Birmingham, Ala.) was then added at 100 μl/well for one hour at room temperature (all wells are washed three times with PBS-Tween between each incubation step). TMB Membrane Peroxidase Substrate system (Kirkegaard & Perry Laboratories) was freshly miced, and added at […]. The color was allowed to develop for 2-5 minutes. The reaction was stopped by the addition of […] of 1M phosphoric acid. Plates were read on a Microplate IL310 Autoreader (Biotech Instruments, Winooski, Vt.) with a 450 nm filter. The absorbance levels of duplicate wells were averaged. The order of coating antigens listed vertically in these figure legends corresponds in orDer from left to right to the coating antigens listed for each histogram.
The antigen preparation that was used as a positive control was a mixture of the four major biochemically purified mite allergens (term PMA for Purified Mite Allergen); Der f I, Der f II, Der p I and Der p II. The stock was generated at a concentration of 100 μgs of each protein per millimeter or 400 μgs total protein/ml. This preparation was used on each coated ELISA plate.

[3] = test system: T cell lines primed in vitro with Der p I; test: T cell proliferation with fine map and modified Group I peptides (Example XIV); type: cell-based, human; settings: for T cell response, Group I peptides: FIGS. 31a-b
Method: Long term T cell lines were established by stimulation of 2×10^6 PBL/ml in bulk cultures of complete medium (RPMI-1640, 2 mM L-glutamine, 100 U/ml penicillin/streptomycin, 5×10^-5 M 2-mercaptoethanol, and 10 mM HEPES supplemented with 5% heat inactivated human AB serum) with 30 μg/ml of purified native Der p I or Der p II for 5-6 days at 37° C. in a humidified 5% CO2 incubator to select for house dust mite protein allergen reactive T cells. This amount of priming antigen was determined to be optimal for the activation of T cells from house dust mite allergic patients. Viable cells were purified by LSM centrifugation and cultured in complete medium supplemented with 5 units recombinant human IL-2/ml and 5 units recombinant human IL-4/ml for up to three weeks until the cells no longer responded to lymphokines and were considered "rested". The ability of the T cells to proliferate to selected peptides, purified Der p I or Der p II, or positive (PHA) controls or negative controls (medium only) was then assessed. For assay, 2×10^4 rested cells were restimulated in the presence of 2×10^4 autologous Epstein-Barr virus (EBV)-transformed B cells (prepared as described below) (gamma-irradiated with 25,000 RADS) or with 5×10^4 autologous PBMs (gamma-irradiated with 3500 RADS), with 2-50 μg/ml of purified native Der p I or Der p II in a volume of 200 μl complete medium in duplicate or triplicate wells in 96-well round bottom plates for 3 days. Each well then received 1 μCi tritiated thymidine for 16-20 hours. The counts incorporated were collected onto glass fiber filter mats and processed for liquid scintillation counting. […] The titrations were used to optimize the dose of peptides in T cell assays.
The maximum response in a titration of each peptide is expressed as the stimulation index (S.I.). The S.I. is the counts per minute (CPM) incorporated by cells in response to peptide, divided by the CPM incorporated by cells in medium only. […] The positive results were used in calculating mean stimulation indices for each peptide for the individual patient tested.
The above procedure was followed with 18 patients in the studies using peptides derived from Der p I and Der f I (FIGS. 31a-b), and 21 patients in the studies with Der p II peptides (FIGS. 32a-b). Individual patient results were used in calculating the mean S.I. for each peptide if the patient responded to the Der p I or Der p II protein at an S.I. of 2.0 or greater and the patient responded to at least one peptide derived from a house dust mite allergen at an S.I. f 2.0 or greater. A summary of positive experiments from the patients tested is shown in FIGS. 32a and 32b and FIGS. 33a and 33b. The bars represent the positivity index. […] In parenthesis above each bar are the mean stimulation indices for each peptide or protein for the group of patients tested.
Autologous EBV-transformed cell lines were γ-irradiated with 25,000 Rad and used as antigen presenting cells in secondary proliferation assays and secondary bulk stimulations. These EBV-transformed cell lines were made by incubating 5×10^6 PBL with 1 ml of B-59/8 Marmoset cell line (ATCC CRL1612, American Type Culture Collection, Rockville, Md.) conditioned medium in the presence of 1 μg/ml phorbol 12-myristate 13-acetate (PMA) at 37° C. for 60 minutes in 12×75 mm polypropylene round-bottom Falcon snap cap tubes (Becton Dickinson Labware, Lincoln Park, N.J.). These cells were then diluted to 1.25×10^6 cells/ml in RPMI-1640 as described above except supplemented with 10% heat-inactivated fetal bovine serum and cultured in 200 μl aliquots in flat bottom culture plates until visible colonies were detected. They were then transferred to larger wells until the cell lines were established.

[4] = test system: PBMC from mite-allergic patient; test: primary T cell (PBMC) proliferation, mite-allergic patient, tritiated thymidine; type: cell-based, human; settings: medium 1071 ± 30
Method: Peripheral blood mononuclear cells (PBMC) were purified by Ficoll-Hypaque centrifugation of a peripheral blood specimen from mite-allergic patient and were assayed for proliferation in response to various antigens, i.e., affinity-purified Der p I, affinity purified Der p II, various Der p I and Der p II peptides. For assay, 5×10^4 PBMC were cultured in triplicate microwells for 7 days at 37° C. in the presence of various concentrations of antigen in 200 μl RPMI-1640 containing 5% human AB serum. Each well then received 1 μCi tritiated thymidine for 16 hours. The counts incorporated were collected onto glass fiber filters and processed for liquid scintillation counting. […] The CPM +/- standard deviation are shown. The stimulation index of each response (S.I.) is the ratio of the ^3 H-thymidine CPM incorporated by the cells in response to antigen divided by the ^3 H-thymidine CPM incorporated by cells in medium only. […] Thus, these peptides contain Der p I or Der p II T cell epitopes recognized by T cells from this particular allergic patient.

[5] = test system: T cell lines primed in vitro to Der p I; test: secondary proliferation of Der p I-primed T cell lines (Examples V, VII, XI); type: cell-based, human; settings: overlapping Der p I peptides; 33 positive experiments
Summary of the method: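 PBMC were primed with native or recombinant Der p I (10 or 20 μg/ml) for 7 days, then expanded with IL-2 and IL-4. Resting T cells (2×10^4) were cultured 3 days with irradiated autologous EBV-B cells or PBMC and titrated protein or peptides, then pulsed 16 h with 1 μCi ³H-thymidine. S.I. was peak-response CPM over medium-only CPM, with S.I. ≥2.0 scored positive.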

[6] = test system: T cell lines primed in vitro to Der f I; test: secondary proliferation of Der f I-primed T cell lines (Examples VI, VII, XI); type: cell-based, human; settings: Der f I primed; 8 positive experiments; FIG. 8
Method: Experiments similar to those of Example V were performed to determine. the T cell-reactive areas of the Der f I protein. For example, PBMC from house dust mite-allergic patient 783 were isolated as described in Example V and were stimulated in vitro-- with recombinant purified Der f I at 20 μg/ml. The results of the proliferation assay with Der f I peptides using x-irradiated (3500 Rads) autologous PBMC as antigen presenting cells indicate that T cells from this patient respond to the peptides DF I-8.1, DF I-9, DF I-6, DF I-10, DF I-2.1, DF I-3, DF I-11, DF I-5, DF I-1, and DF I-17 (data not shown).
The above procedure was followed in a number of patients except in individual cases, T cell lines were primed with affinity purified Der f I at 20 μg/ml or at 10 μg/ml and x-irradiated (25,000 Rads) autologous Epstein-Barr virus transformed B cells were used as antigen presenting cells. […]
Similarly, the procedure described in Example VI was followed with T cell lines from 9 patients primed in vitro to the Der f I protein then analyzed for response to selected peptides derived from the protein. The data was analyzed as described in Example VI. […]

Substance: DP II-7: Der p II peptide (CPLVKGQQYDIKYTWNVPKIAPKSENV)
T cell reactivity [1]: significant T cell reactivity | T cell response [1]: responds well | T cell response to Der p II peptides [2]: respond significantly

IgE binding (ELISA), modified peptides (human IgE): No plasma samples contained IgE
Substance: DP I-23.35: modified Der p I peptide (DEKEGVVQESYYRYVAREQSCRRPNADKE)
positive T cell responses, modified peptides ([3]; 18 T cell lines, affinity purified Der p I primed, FIG. 31a): all eighteen T cell lines responded positively | T cell response, Group I peptides [3]: positive T cell studies

Substance: DF II-4.5: Der f II peptide (TLEALFDANQNTKTAKIEIKASLDG)
T cell response to Der f II peptides [1]: respond significantly | T cell reactivity [2]: significant areas of T cell reactivity | T cell response [2]: respond well

Substance: DF II-1: Der f II peptide (DQVDVKDCANNEIKKVMVDG)
T cell response to Der f II peptides [1]: respond significantly | T cell reactivity [2]: significant areas of T cell reactivity | T cell response [2]: respond well

Substance: DP II-1: Der p II peptide (DQVDVKDCANHEIKKVLVPG)
T cell reactivity [1]: significant T cell reactivity | T cell response [1]: responds well | T cell response to Der p II peptides [2]: respond significantly

Substance: DP I-2: Der p I peptide (EIDLRQMRTVTPIRMQGGCGSCWAFSG)
CPM ± S.D. ([4]; 10 μg/ml): 1395 ± 47 CPM | CPM ± S.D. ([4]; 30 μg/ml): 1283 ± 34 CPM | CPM ± S.D. ([4]; 100 μg/ml): 1486 ± 38 CPM | T cell reactivity [5]: significant regions of T cell reactivity | T cell response, Group I peptides [3]: positive response

Substance: DF II-16: Der f II peptide (LEIDVPGIDTNACHFMKCPLVKGQQY)
T cell response [2]: respond well

Substance: DF II-3.1: Der f II peptide (HRGKPFTLEALFDANQNTK)
T cell response [2]: respond well

Substance: DF II-13.1: Der f II peptide (HGSDPCIIHRGKPFTLEALFDANQNTKTA)
T cell reactivity [2]: significant areas of T cell reactivity

Substance: DF II-19.1: Der f II peptide (VVTVKLVGDNGVLACAIATHAKIRD)
T cell response to Der f II peptides [1]: respond significantly | T cell reactivity [2]: significant areas of T cell reactivity

Substance: DP II-25.2: Der p II peptide (TVKVLGDDGVLASAIATHAKIRD)
ranked sum of peptide responses ([2]; FIG. 18b, preferred Der p II peptides): highest ranked sum

Substance: DP I-4: Der p I peptide (VAATESAYLAHRNQSLDLAEQ)
T cell response to Der p I peptides [6]: respond significantly | T cell reactivity [5]: significant regions of T cell reactivity | T cell response, Group I peptides [3]: positive response

Substance: DF II-17: Der f II peptide (CPLVKGQQYDAKYTWNVPKIAPKSENV)
T cell response to Der f II peptides [1]: respond significantly | T cell reactivity [2]: significant areas of T cell reactivity
